Usually IC50 stands for the concentration at which inhibition is half-maximal. A higher IC50 goes with a need for much substance.

In the test the target is PRMT1 (Rattus norvegicus, UniProt Q63009). Kind of test: scintillation proximity assay of 3H-SAM methylation of biotinylated H4 peptide. In kind it is biochemical.

SMILES strings stand for the structures.

PRMT1, sequence (Q63009 whole entry): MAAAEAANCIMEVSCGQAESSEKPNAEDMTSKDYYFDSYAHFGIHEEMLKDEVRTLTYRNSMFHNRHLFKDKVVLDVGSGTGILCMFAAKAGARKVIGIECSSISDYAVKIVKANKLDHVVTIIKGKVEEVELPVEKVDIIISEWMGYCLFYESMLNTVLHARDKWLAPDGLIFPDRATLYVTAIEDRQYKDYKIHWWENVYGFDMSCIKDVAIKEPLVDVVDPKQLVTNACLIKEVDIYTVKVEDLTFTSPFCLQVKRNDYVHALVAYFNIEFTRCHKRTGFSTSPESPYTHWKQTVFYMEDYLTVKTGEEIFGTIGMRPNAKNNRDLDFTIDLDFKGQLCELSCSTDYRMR

On to `Nc1ncnc2c1ncn2[C@@H]1O[C@H](CSCC[C@H](N)C(=O)O)[C@@H](O)[C@H]1O` [SAH, S-adenosyl-L-homocysteine], for which the IC50 was 300 nM.

For the origin of these results see paper PMC3236808 (2011).
